Measurements as given in US7314866B2, “Ku-70-derived Bax-suppressing peptides and use thereof for the protection of damaged cells” (Bloodcenter of Wisconsin, Inc., priority 2002, dated 2008).
Entries after “also recorded” stand apart in the source; their conditions may differ. Values belong to the molecule of their own block, whether it stands above or below them. Where a SMILES comes first, the peptide text is derived from it. Where no end group is shown, it is not given here. The star is where a group is joined. FITC = O=C1OC2(c3ccc(O)cc3Oc3cc(O)ccc32)c2ccc(NC(=S)*)cc21; Biotin = O=C1N[C@H]2[C@H](CS[C@H]2CCCCC(=O)*)N1; Cbz = O=C(OCc1ccccc1)*; CH2F = FC*

How the values were obtained:
HEK293T cells = assay: Bax-induced apoptosis in HEK293T cells (pcDNA3-Bax transfection, Hoechst staining); format: cell-based, human; details: added to the culture medium
Description: FIG. 1 illustrates that new peptides designed from Ku70 show anti-Bax activity. FIG. 1A: scheme of Ku70 full-length (Ku70 wt), Ku701-577 (Ku70Δ578–609), or Ku70578-609 (Ku70Δ1–577). FIG. 1C: HEK293T cells were transfected with 1.0 ug of pCMV-2B-control vector (Control) or pcDNA3-Bax (Bax) together with 2.0 ug of pCMV-2B-Ku70 wt (Ku70 wt), pCMV-2B-Ku701-577 (Ku701-577), or pCMV-2B-Ku70578-609 (Ku70578-609). All the cells were also co-transfected with 0.5 ug pEGFP for the marking of transfected cells. Apoptosis in the transfected cells was analyzed 24 hours following transfection with Hoechst dye staining of the nucleus as described in Methods. FIG. 1D: HEK293T cells were incubated with 200 uM peptide composed of Ku70578-587 or Ku70596-600 for 4 hours using BioPorter reagent, and then transfected with 1.0 ug of pCDNA3-control vector (Control) or pcDNA3-Bax (Bax). The number of apoptotic cells was determined as described in FIG. 1C. FIG. 1E: HEK293T cells (10^6 cells) were incubated with 200 uM IPMIK (negative control peptide) or VPMLK (V5) and PMLKE (P5) peptides at the indicated concentrations for 1 hour and then incubated cells were transfected with 1.0 ug of pcDNA3-Bax. Also, unincubated cells were transfected with 1.0 ug of pcDNA3-Bax in the presence or absence of 200 uM z-VAD-fmk. The number of apoptotic cells was determined as described in FIG. 1C. FIG. 1F: Summary of the anti-Bax activity and sequence of all peptides used.
HEK293T and HeLa cells were cultured in MEM supplemented with 10% fetal bovine serum (FBS) and Du145 cells and mouse embryonic fibroblasts (MEFs) were in DMEM with 10% FBS. Transfection of the plasmids was performed by SuperFect (Qiagen) according to the manufacturer's manual. Apoptosis was induced by pcDNA3-human Bax (Bax-encoding plasmid)-transfection, Staurosporin (STS)-treatment and UVC-irradiation. The amount of the plasmids, the concentration of STS, and the energy of UVC-irradiation are described in the figure legends. Apoptosis in the transfected cells was analyzed as follows: A plasmid encoding enhanced green fluorescent protein (EGFP) (0.5 ug to 10^6 cells) was transfected to all the groups to mark the transfected cells. After the treatment, cells were stained with Hoechst dye and cells with apoptotic nuclei were counted in GFP-expressing cells under the fluorescent microscope as described by Matsuyama, et al., J. Biol. Chem. 273:30995–31001, 1998. Each point in the figures showing percentages of apoptosis represents the mean +/−SE of three experiments. Caspase activities of cells were measured by detecting the cleavage of fluorogenic substrate of Caspase (DEVD-afc) as previously described.
BioPorter-based peptide delivery was performed 4 hours before apoptosis induction.

Bax = assay: Co-precipitation of biotin-labeled peptides and endogenous Bax using streptavidin beads; format: binding, human; details: HEK293T lysates, CHAPS buffer
Caspase = Caspase activity (DEVD-afc cleavage); format: cell-based, human; details: HeLa cells, 200 nM STS, 200 uM, 24 hours
Description: (§1) FIG. 4A: One day following UVC-irradiation or STS-treatment in the absence (UV and STS) or presence of 200 uM negative control (NC) peptide (UV+NC and STS+NC) or V5 peptide (UV+V5 and STS+V5), subcellular fractionation of HeLa cells (10^6 cells) was performed. FoF1 ATP synthase subunit α (F1α) was used to mark the mitochondrial fraction. HM stands for “Heavy Membrane” fraction containing mitochondria. FIG. 4C: cytochrome c release from mitochondria is inhibited by BIP, but not z-VAD-fmk. HeLa cells (10^6 cells) were treated with 200 nM STS in the presence or absence of 200 uM negative control (NC) peptide, V5 peptide, or z-VAD-fmk for 24 hours. Cytochrome c released from mitochondria into cytosol was analyzed by subcellular fractionation followed by Western blot analysis of cytochrome c (cyt c) as well as mitochondrial FoF1-ATP-synthase subunit F1α (F1α) as described in Methods. […] Caspase activity was assessed as described in Methods. […]
HEK293T and HeLa cells were cultured in MEM supplemented with 10% fetal bovine serum (FBS) and Du145 cells and mouse embryonic fibroblasts (MEFs) were in DMEM with 10% FBS. […] Apoptosis in the transfected cells was analyzed as follows: A plasmid encoding enhanced green fluorescent protein (EGFP) (0.5 ug to 10^6 cells) was transfected to all the groups to mark the transfected cells. […]

endogenous Bax = molecular target: T1, endogenous Bax (Mus musculus, UniProt Q07813); assay: Scatchard analysis of the binding of FITC-V5 and Bax; details: Bax-immunodepleted cell lysates
T1 construct: endogenous in cells; host or cells: Ku70-deficient mouse embryonic fibroblasts, cytosol fraction
Description: as §1
Ku70-deficient MEFs (10^7 cells) were lysed in 200 ul of “detergent-free hypotonic buffer” (hypotonic (5 mM NaCl) phosphate buffered saline, pH 7.4) containing protease inhibitors (100 times dilution of Protease Inhibitors Cocktail; Sigma) according to the previously reported method (Hsu and Youle, supra, 1998). […] Kd was calculated by Scatchard plot. […]

human Bax [1] = molecular target: T2, human Bax (human, UniProt Q07812 1-192); assay: conclusion drawn from the biotin-peptide streptavidin pull-down
T2 construct: Protein in cell lysates or cells, not purified; also called endogenous Bax; pcDNA3-Bax (human)
Description: The interaction of BIP and Bax was confirmed by experiments using the system of biotin-labeled BIP and streptavidin beads. Biotin-labeled BIP (biotin-VPMLK; SEQ ID NO: 1), but not negative control peptide (biotin-IPMIK; SEQ ID NO: 5) precipitated Bax from the cell lysates when the streptavidin beads were added to the samples.
(§2) Endogenous protein: HEK293T (10^7 cells) were lysed in 200 ul of "CHAPS-based buffer" (150 mM NaCl, 10 mM Hepes, pH 7.4, 1.0% CHAPS) containing protease inhibitors (100 times dilution of Protease Inhibitors Cocktail; Sigma) according to the previously reported method (Hsu and Youle, *J. Biol. Chem.* 273:10777–10783, 1998). After pre-cleaning of 600 ul of the sample with 50 ul of Protein G-Sepharose at 4° C. for 1 hour, immunoprecipitations were performed by incubating 200 ul of lysates with 20 ul of Protein G-Sepharose preabsorbed with 2 ug of anti-Bax polyclonal (BD-Pharmingen) or anti-Ku70 monoclonal antibody (BD-Pharmingen) at 4° C. for 2 hours. In some cases, 2 ug of anti-Bax monoclonal antibody (clone 6A7, BD Pharmingen) was used to detect active form of Bax. […]

Bak = molecular target: T3, Bak (human, UniProt Q16611 2-211); assay: streptavidin bead pull-down from HEK293T CHAPS lysates, Western blot of Bak
T3 sequence (looked up): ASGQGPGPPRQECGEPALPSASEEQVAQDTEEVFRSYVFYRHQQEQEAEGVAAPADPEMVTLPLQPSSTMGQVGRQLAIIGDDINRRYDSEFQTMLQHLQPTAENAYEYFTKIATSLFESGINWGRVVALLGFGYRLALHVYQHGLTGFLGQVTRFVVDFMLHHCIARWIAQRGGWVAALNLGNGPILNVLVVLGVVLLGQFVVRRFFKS

human Bax [2] = molecular target: T2, human Bax; assay: streptavidin bead pull-down from HEK293T CHAPS lysates, Western blot of Bax
Description: as §2, with “Bax. After extensive washing in the buffer, beads were boiled in 40 ul of Laemmli buffer and 20 ul of the eluted proteins were subjected to SDS-PAGE. *Co-precipitation of biotin-labeled peptides and endogenous Bax using streptavidin beads*: HEK293T cells (10^7 cells) lysed in 200 ul CHAPS-based buffer were incubated with biotin-labeled negative control (NC) peptide or VPMLK (V5; SEQ ID NO: 1) peptide for 1 hour. The concentrations of NC and V5 peptide labeled with biotin are described in the figure legends.” for “Bax.”

T2 sequence (Q07812 whole entry): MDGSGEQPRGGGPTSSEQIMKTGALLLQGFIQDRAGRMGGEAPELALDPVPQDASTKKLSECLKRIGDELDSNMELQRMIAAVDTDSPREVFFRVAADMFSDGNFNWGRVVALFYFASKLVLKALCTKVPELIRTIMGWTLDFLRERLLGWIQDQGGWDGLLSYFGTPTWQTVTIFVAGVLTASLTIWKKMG
T1 sequence (Q07813 whole entry): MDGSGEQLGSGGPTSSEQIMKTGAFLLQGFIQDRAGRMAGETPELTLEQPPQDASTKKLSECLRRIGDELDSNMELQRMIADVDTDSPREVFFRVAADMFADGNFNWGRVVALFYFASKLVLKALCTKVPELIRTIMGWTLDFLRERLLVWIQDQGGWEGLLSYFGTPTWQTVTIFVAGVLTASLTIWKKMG

Molecule: IPMIK [mutant of V5 with V and L changed to I, used as negative control peptide, reference compound]
Suppression of Bax-induced apoptosis in cell culture (HEK293T cells): lost its activity to suppress apoptosis; also recorded: did not suppress Bax-mediated cell death | Interaction with Bax (precipitation from cell lysates) (Bax): fails to interact with Bax

Molecule: COC(=O)C[C@H](NC(=O)[C@H](C)NC(=O)[C@@H](NC(=O)OCc1ccccc1)C(C)C)C(=O)CF [z-VAD-fmk] (Cbz-Val-Ala-Asp(OMe)-CH2F)
Suppression of Bax-induced apoptosis in cell culture (HEK293T cells): showed anti-apoptotic activities | Suppression of Caspase activation (Caspase): suppresses STS-induced Caspase activation

Molecule: CSCC[C@H](NC(=O)[C@@H]1CCCN1C(=O)[C@@H](NC(=S)Nc1ccc2c(c1)C(=O)OC21c2ccc(O)cc2Oc2cc(O)ccc21)C(C)C)C(=O)N[C@@H](CC(C)C)C(=O)N[C@@H](CCCCN)C(=O)O [FITC-labeled BIP] ({FITC}-VPMLK-OH; N-terminus and C-terminus assumed)
Binding of FITC peptide to cellular components (endogenous Bax): No significant binding

Other lines, results leading:

binding result (human Bax [1]): no binding
B1: IPMIK (SEQ ID NO: 5) negative control (NC) peptide (peptide)
peptide: IPMIK
notes: also called negative control peptide; mutant peptide IPMIK

binding result (Bak): no binding (tested: 200 uM)
B2: Biotin-labeled BIP (biotin-VPMLK; SEQ ID NO: 1) (peptide)
peptide: Biotin-VPMLK
notes: also called biotin-labeled V5 peptide (BIP)

binding result (human Bax [2]): no binding (tested: 200 uM)
B3: biotin-IPMIK (SEQ ID NO: 5) negative control peptide (peptide)
peptide: Biotin-IPMIK
notes: also called biotin-labeled negative control (NC) peptide
